Results as given in patent publication US20220177471A1, “N-1 BRANCHED ALKYL SUBSTITUTED IMIDAZO[4,5-C]QUINOLINE COMPOUNDS, COMPOSITIONS, AND METHODS” (3M INNOVATIVE PROPERTIES COMPANY, priority 2019, published 2022).

How the values were obtained:
human TLR8 = target: T1, human TLR8 (Homo sapiens, UniProt Q9NR97); test: TLR activation, HEK-BLUE-hTLR8 SEAP reporter cells; format: cell-based; conditions: 16-20 hours, lowest concentration giving SEAP response at least 2x vehicle control, tested 0.01-30 micromolar
T1 construct: host or cells: HEK293 (HEK-BLUE-hTLR8)
T1 sequence (Q9NR97 27-1041): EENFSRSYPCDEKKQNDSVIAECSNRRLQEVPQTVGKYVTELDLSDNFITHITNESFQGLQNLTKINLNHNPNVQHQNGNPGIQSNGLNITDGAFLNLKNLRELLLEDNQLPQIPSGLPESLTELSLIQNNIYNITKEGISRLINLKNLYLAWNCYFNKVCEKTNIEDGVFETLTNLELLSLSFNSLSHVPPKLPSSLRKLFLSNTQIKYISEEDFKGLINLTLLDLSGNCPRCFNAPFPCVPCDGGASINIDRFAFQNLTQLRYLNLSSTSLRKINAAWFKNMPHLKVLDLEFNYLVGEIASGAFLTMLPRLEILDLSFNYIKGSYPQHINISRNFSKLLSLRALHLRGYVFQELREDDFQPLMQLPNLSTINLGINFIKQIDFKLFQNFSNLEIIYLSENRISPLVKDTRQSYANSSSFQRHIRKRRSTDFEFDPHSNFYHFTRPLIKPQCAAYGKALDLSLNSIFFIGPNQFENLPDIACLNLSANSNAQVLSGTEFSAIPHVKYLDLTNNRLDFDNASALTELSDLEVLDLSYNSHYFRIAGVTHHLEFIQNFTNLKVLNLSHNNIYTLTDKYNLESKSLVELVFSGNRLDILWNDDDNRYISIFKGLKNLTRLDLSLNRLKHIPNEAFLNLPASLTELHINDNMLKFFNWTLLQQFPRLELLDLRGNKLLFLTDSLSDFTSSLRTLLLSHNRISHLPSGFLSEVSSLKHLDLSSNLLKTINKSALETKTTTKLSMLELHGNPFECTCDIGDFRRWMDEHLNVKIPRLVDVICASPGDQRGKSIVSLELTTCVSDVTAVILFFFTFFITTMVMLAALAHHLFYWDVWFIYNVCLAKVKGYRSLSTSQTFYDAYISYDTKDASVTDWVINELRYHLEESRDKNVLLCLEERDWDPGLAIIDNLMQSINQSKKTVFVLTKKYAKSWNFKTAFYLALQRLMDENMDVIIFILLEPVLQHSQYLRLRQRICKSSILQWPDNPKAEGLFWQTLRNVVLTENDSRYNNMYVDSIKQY
Procedure: (§1) HEK-BLUE-hTLR7 or hTLR8 reporter cells were obtained from InvivoGen, San Diego, Calif. According to the manufacturer's description, these reporter cells were prepared by co-transfection of HEK293 cells with an inducible secreted embryonic alkaline phosphatase (SEAP) reporter gene and either the human TLR7 or TLR8 gene. The SEAP reporter gene was placed under the control of an IFN-β minimal promoter fused to five NF-κB and AP-1-binding sites. In the presence of a TLR ligand, activation of NF-κB and AP-1 occurs, resulting in a corresponding increase in SEAP levels.
(§2) In the assay, the HEK cells were grown and maintained using standard cell culture techniques in a growth medium that contained Dulbecco's Modified Eagle Medium (ThermoFisher Scientific Incorporated, Waltham, Mass.) supplemented with 1% penicillin/streptomycin and 10% heat-inactivated Gibco fetal bovine serum (ThermoFisher Scientific). Each compound was solubilized in DMSO to create a 3 mM stock solution. The stock solution was then further diluted with the growth medium to prepare serial dilutions. Each test compound was tested at a concentration of 30, 10, 3.3, 1.1, 0.37, 0.12, 0.04, and 0.01 micromolar using a 96-well format with 5×10^4 cells and 200 microliters of growth medium per well.
(§3) For each compound, hTLR7, hTLR8, and their respective null control HEK cells were screened. DMSO serially diluted into the growth medium served as the vehicle control. Cell culture supernatants containing the SEAP reporter were collected after an incubation period of 16-20 hours in a cell culture incubator (37° C. and 5% CO2), and either analyzed immediately or stored at −80° C. SEAP levels were measured using the colorimetric enzyme assay (QUANTI-BLUE (InvivoGen) according to manufacturer's instructions.
(§4) Specifically, the minimum effective concentration of each compound (micromolar) was determined as the lowest concentration of the compound that produced a SEAP expression response at least 2× greater than that observed with the vehicle control wells.

human TLR7 = target: T2, human TLR7 (Homo sapiens, UniProt Q9NYK1); test: TLR activation, HEK-BLUE-hTLR7 SEAP reporter cells; format: cell-based; conditions: 16-20 hours, lowest concentration giving SEAP response at least 2x vehicle control, tested 0.01-30 micromolar
T2 construct: host or cells: HEK293 (HEK-BLUE-hTLR7)
T2 sequence (Q9NYK1 27-1049): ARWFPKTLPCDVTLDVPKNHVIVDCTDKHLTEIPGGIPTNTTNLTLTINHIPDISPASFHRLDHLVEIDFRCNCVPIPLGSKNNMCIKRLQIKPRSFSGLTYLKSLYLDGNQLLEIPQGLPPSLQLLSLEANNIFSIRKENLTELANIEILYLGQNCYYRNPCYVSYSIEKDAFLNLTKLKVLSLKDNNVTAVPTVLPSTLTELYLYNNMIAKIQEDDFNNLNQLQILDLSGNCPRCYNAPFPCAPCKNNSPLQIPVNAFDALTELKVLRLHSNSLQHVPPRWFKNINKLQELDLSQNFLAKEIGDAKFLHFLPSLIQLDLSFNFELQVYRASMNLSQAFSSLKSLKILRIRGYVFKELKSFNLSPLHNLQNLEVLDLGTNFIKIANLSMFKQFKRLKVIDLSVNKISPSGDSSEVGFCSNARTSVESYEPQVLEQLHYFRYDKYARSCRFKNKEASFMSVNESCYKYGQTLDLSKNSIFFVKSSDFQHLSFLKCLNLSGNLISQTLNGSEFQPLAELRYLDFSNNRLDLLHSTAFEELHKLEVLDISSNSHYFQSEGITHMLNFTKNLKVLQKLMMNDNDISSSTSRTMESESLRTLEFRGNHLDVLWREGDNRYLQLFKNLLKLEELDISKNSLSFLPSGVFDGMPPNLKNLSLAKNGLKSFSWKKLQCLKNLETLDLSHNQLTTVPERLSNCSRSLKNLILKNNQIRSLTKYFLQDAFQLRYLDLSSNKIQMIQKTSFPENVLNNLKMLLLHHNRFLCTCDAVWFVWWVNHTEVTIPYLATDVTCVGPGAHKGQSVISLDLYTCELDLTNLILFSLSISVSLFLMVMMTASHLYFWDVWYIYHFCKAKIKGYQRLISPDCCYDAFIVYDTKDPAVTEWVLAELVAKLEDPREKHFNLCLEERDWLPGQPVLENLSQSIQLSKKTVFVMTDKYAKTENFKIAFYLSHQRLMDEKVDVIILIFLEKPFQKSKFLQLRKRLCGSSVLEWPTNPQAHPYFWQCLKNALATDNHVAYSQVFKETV
Procedure: as §1, §2, §3, §4

SMILES | MEC to Produce TLR Activation: TLR 8 (human TLR8) | MEC to Produce TLR Activation: TLR 7 (human TLR7)
CC(C)[C@@H](C)n1cnc2c(N)nc3ccccc3c21 [Example 1, 1-[(1R)-1,2-dimethylpropyl]imidazo[4,5-c]quinolin-4-amine] | >30 µM | 1.1 µM
C[C@@H](n1cnc2c(N)nc3ccccc3c21)C(C)(C)C [Example 3, 1-[(1R)-1,2,2-trimethylpropyl]imidazo[4,5-c]quinolin-4-amine] | >30 µM | 1.11 µM
C[C@H](C1CCCCC1)n1cnc2c(N)nc3ccccc3c21 [Example 5, 1-[(1R)-1-cyclohexylethyl]imidazo[4,5-c]quinolin-4-amine] | >30 µM | 1.11 µM
C[C@@H](C1CCCCC1)n1cnc2c(N)nc3ccccc3c21 [Example 6, 1-[(1S)-1-cyclohexylethyl]imidazo[4,5-c]quinolin-4-amine] | >30 µM | >30 µM
CCCC[C@@H](n1cnc2c(N)nc3ccccc3c21)C(C)(C)C [Example 8, 1-[(1R)-1-tert-butylpentyl]imidazo[4,5-c]quinolin-4-amine] | >30 µM | ≤0.01 µM
C[C@@H](n1cnc2c(N)nc3ccccc3c21)C(C)(C)O [Example 9, (3R)-3-(4-aminoimidazo[4,5-c]quinolin-1-yl)-2-methyl-butan-2-ol] | >30 µM | 3.3 µM
C[C@H](n1cnc2c(N)nc3ccccc3c21)C(C)(C)O [Example 10, (3S)-3-(4-aminoimidazo[4,5-c]quinolin-1-yl)-2-methyl-butan-2-ol] | >30 µM | >30 µM
CCC[C@@H](n1cnc2c(N)nc3ccccc3c21)C(C)(C)O [Example 13, (3R)-3-(4-aminoimidazo[4,5-c]quinolin-1-yl)-2-methyl-hexan-2-ol] | 10 µM | 0.04 µM
CCCC[C@@H](n1cnc2c(N)nc3ccccc3c21)C(C)(C)O [Example 15, (3R)-3-(4-aminoimidazo[4,5-c]quinolin-1-yl)-2-methyl-heptan-2-ol] | 10 µM | 0.01 µM
CC(C)C[C@@H](n1cnc2c(N)nc3ccccc3c21)C(C)(C)O [Example 17, (3R)-3-(4-aminoimidazo[4,5-c]quinolin-1-yl)-2,5-dimethyl-hexan-2-ol] | >30 µM | 1.1 µM

The next lines start with the values.

MEC to Produce TLR Activation: TLR 8 (human TLR8) | MEC to Produce TLR Activation: TLR 7 (human TLR7) | SMILES
>30 µM | 10 µM | CC(C)Cn1cnc2c(N)nc3ccccc3c21 [Comparative Example 1, 1-isobutylimidazo[4,5-c]quinolin-4-amine, reference compound]
>30 µM | 10 µM | CC(C)(O)Cn1cnc2c(N)nc3ccccc3c21 [Comparative Example 2, 1-(4-aminoimidazo[4,5-c]quinolin-1-yl)-2-methyl-propan-2-ol, reference compound]
>30 µM | >30 µM | CC(C)[C@H](C)n1cnc2c(N)nc3ccccc3c21 [Example 2, 1-[(1S)-1,2-dimethylpropyl]imidazo[4,5-c]quinolin-4-amine]
>30 µM | >30 µM | C[C@H](n1cnc2c(N)nc3ccccc3c21)C(C)(C)C [Example 4, 1-[(1S)-1,2,2-trimethylpropyl]imidazo[4,5-c]quinolin-4-amine]
>30 µM | 0.04 µM | CCCC[C@H](C(C)C)n1cnc2c(N)nc3ccccc3c21 [Example 7, 1-[(1R)-1-isopropylpentyl]imidazo[4,5-c]quinolin-4-amine]
>30 µM | 1.1 µM | CC[C@@H](n1cnc2c(N)nc3ccccc3c21)C(C)(C)O [Example 11, (3R)-3-(4-aminoimidazo[4,5-c]quinolin-1-yl)-2-methyl-pentan-2-ol]
>30 µM | >30 µM | CC[C@H](n1cnc2c(N)nc3ccccc3c21)C(C)(C)O [Example 12, (3S)-3-(4-aminoimidazo[4,5-c]quinolin-1-yl)-2-methyl-pentan-2-ol]
>30 µM | >30 µM | CCC[C@H](n1cnc2c(N)nc3ccccc3c21)C(C)(C)O [Example 14, (3S)-3-(4-aminoimidazo[4,5-c]quinolin-1-yl)-2-methyl-hexan-2-ol]
>30 µM | >30 µM | CCCC[C@H](n1cnc2c(N)nc3ccccc3c21)C(C)(C)O [Example 16, (3S)-3-(4-aminoimidazo[4,5-c]quinolin-1-yl)-2-methyl-heptan-2-ol]
>30 µM | >30 µM | CC(C)C[C@H](n1cnc2c(N)nc3ccccc3c21)C(C)(C)O [Example 18, (3S)-3-(4-aminoimidazo[4,5-c]quinolin-1-yl)-2,5-dimethyl-hexan-2-ol]
